≈ marks a conversion by molar mass, not a printed value.
What was measured:
[1] = molecular target: T1, Interleukin-1 receptor-associated kinase 4 (Homo sapiens, UniProt Q9NWZ3); experiment: Inhibition of IRAK4 in IL1-stimulated human KARPAS-299 cells assessed as fluorescence intensity; type: cell-based
T1 sequence (Q9NWZ3 whole entry): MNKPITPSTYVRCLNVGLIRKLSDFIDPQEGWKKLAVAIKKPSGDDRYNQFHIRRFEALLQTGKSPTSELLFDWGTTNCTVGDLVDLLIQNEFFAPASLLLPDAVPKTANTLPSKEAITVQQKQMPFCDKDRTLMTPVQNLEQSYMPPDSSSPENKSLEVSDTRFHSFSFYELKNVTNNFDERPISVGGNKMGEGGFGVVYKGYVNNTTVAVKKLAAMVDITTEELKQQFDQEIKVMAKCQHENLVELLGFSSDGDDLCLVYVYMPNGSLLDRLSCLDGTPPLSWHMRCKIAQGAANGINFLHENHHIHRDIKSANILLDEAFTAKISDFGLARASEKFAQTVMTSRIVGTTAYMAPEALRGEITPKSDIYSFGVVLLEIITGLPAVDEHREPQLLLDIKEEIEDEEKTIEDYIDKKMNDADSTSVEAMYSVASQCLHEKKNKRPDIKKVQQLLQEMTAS

[2] = Octanol/water partition coefficient, logP of compound at pH 7.4 by shake-flask method; type: physicochemical
[3] = molecular target: T1, Interleukin-1 receptor-associated kinase 4; experiment: Inhibition of human recombinant IRAK4 assessed as unphosphorylated KKARFSRFAGSSPSQSSMVAR peptide substrate measured after 2 hrs by LC-MS/MS analysis
[4] = Intrinsic permeability across apical to basolateral side in human Caco-2 cells; type: ADME, cell-based
[5] = Metabolic stability in human liver microsomes assessed as intrinsic clearance; type: ADME
[6] = Efflux ratio of permeability in human Caco-2 cells; type: ADME, cell-based
[7] = molecular target: Voltage-gated inwardly rectifying potassium channel KCNH2 (Homo sapiens, UniProt Q12809); experiment: Inhibition of human ERG channel; type: toxicity
[8] = Aqueous solubility of compound; type: physicochemical; settings: buffer
[9] = Fraction unbound in human plasma; type: ADME, cell-free

Voltage-gated inwardly rectifying potassium channel KCNH2, sequence (Q12809 whole entry): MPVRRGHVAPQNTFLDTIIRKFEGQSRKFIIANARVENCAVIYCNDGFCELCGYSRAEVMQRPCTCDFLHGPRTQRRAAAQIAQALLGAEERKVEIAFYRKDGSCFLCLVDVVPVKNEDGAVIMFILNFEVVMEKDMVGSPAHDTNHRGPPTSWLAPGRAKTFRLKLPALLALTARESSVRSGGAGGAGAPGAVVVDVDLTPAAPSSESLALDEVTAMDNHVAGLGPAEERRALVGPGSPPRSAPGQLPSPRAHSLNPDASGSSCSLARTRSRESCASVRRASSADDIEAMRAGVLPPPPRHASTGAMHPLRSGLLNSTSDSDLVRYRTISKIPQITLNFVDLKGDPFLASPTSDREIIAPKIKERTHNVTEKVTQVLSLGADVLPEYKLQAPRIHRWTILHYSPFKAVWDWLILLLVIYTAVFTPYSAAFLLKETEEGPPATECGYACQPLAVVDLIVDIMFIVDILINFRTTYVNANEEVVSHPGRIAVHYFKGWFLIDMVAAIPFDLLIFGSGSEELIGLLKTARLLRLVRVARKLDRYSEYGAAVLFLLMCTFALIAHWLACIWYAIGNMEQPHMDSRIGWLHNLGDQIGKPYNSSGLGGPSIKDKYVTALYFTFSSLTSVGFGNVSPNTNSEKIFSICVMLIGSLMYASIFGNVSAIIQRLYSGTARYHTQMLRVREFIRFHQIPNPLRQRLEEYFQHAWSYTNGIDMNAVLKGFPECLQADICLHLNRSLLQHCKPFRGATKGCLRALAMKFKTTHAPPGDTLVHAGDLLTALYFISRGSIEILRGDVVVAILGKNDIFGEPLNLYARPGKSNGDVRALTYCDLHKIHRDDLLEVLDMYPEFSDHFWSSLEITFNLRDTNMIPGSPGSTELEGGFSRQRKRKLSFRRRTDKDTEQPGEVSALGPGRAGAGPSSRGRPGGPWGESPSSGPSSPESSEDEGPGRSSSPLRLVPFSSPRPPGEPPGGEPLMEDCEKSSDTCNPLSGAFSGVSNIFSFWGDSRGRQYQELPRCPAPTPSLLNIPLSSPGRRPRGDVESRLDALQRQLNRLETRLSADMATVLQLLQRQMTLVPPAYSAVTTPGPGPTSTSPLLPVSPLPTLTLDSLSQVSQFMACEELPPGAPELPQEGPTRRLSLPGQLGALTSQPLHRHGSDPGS

SMILES | IC50 [1] | logD [2] | IC50 [3] | Papp A→B [4] | CLint [5] | efflux ratio [6] | IC50 [7] | solubility [8] | fraction unbound [9]
COC(=O)N1CCN([C@H]2CC[C@H](Nc3nc(Nc4cnn(C)c4)nc4ccc(C)nc34)CC2)CC1 | 180 nM | 2.6 | 5 nM | 7.9 ×10⁻⁶ cm/s | 37 µL/min/mg | 2.1 |  |  | 
CN1C[C@H]2C[C@@H]1C[C@@H]2n1cc(Nc2nc(NC3(C)CC3)c3c(=O)n(C)ccc3n2)cn1 | 320 nM | 1.2 | 16 nM |  | 14 µL/min/mg |  |  |  | 
COC(=O)N1CCN([C@H]2CC[C@H](Nc3nc(Nc4cnn(C)c4)nc4ccn(C)c(=O)c34)CC2)CC1 | 150 nM | 2.4 | 5 nM | 17 ×10⁻⁶ cm/s | 22 µL/min/mg | 3 |  |  | 
CN1CCC(n2cc(Nc3nc(NC4(C)CC4)c4c(=O)n(C)ccc4n3)cn2)CC1 | 39 nM | 2.4 | 1 nM | 17 ×10⁻⁶ cm/s | 25 µL/min/mg | 3.1 |  |  | 
C[C@H](F)Cn1ccc2nc(Nc3cnn([C@H]4C[C@H]5C[C@@H]4CN5C)c3)nc(NC3(C)CC3)c2c1=O | 79 nM | 2 | 3 nM |  | 12 µL/min/mg |  |  |  | 
CN1CC2(CC(n3cc(Nc4nc(NC5(C)CC5)c5c(=O)n(CC(F)F)ccc5n4)cn3)C2)C1 | 90 nM | 2 | 4 nM | 12 ×10⁻⁶ cm/s | 9.6 µL/min/mg | 7.1 |  |  | 
CN1CC(n2cc(Nc3nc(NC4(C)CC4)c4c(=O)n(C)ccc4n3)cn2)CCC1=O (centres undefined) | 75 nM | 2.4 | 2 nM |  | 89 µL/min/mg |  |  |  | 
Cn1cc(Nc2nc(NC3(C)CC3)c3nc(CC#N)ccc3n2)cn1 |  | 2.7 |  |  | 82 µL/min/mg |  |  |  | 
Cn1cc(Nc2nc(NC3(C)CC3)c3c(=O)n(C)ccc3n2)cn1 | 190 nM | 2.9 | 8 nM | 67 ×10⁻⁶ cm/s | 13 µL/min/mg | 0.75 |  |  | 
COC(=O)N1CCN([C@H]2CC[C@H](Nc3nc(Nc4cnn(C)c4)nc4ccn(CC#N)c(=O)c34)CC2)CC1 | 440 nM | 2.3 | 23 nM |  | 25 µL/min/mg |  |  |  | 
CN1C[C@H]2C[C@@H]1C[C@@H]2n1cc(Nc2nc(NC3(C)CC3)c3c(=O)n(CC(F)F)ccc3n2)cn1 | 150 nM | 1.9 | 4 nM |  | 23 µL/min/mg |  |  |  | 
CN1CCC(n2cc(Nc3nc(NC4(C)CC4)c4c(=O)n(CC(F)F)ccc4n3)cn2)CC1 | 83 nM | 2.9 | 2 nM |  | 50 µL/min/mg |  |  |  | 
CN1C[C@@H]2C[C@H]1C[C@@H]2n1cc(Nc2nc(NC3(C)CC3)c3c(=O)n(C)ccc3n2)cn1 | 90 nM | 1.4 | 3 nM |  | 17 µL/min/mg |  |  |  | 
C[C@@H](CF)n1ccc2nc(Nc3cnn(C4CCN(C)CC4)c3)nc(NC3(C)CC3)c2c1=O | 150 nM | 3 | 4 nM |  | 51 µL/min/mg |  |  |  | 
CN1CCC(n2cc(Nc3nc(NC4(C)CC4)c4c(=O)n(C(F)F)ccc4n3)cn2)CC1 | 170 nM | 3.3 | 3 nM |  | 31 µL/min/mg |  |  |  | 
CN1CCC(n2cc(Nc3nc(NC4(C)CC4)c4c(=O)n(-c5cn(C)nn5)ccc4n3)cn2)CC1 | 180 nM | 2.5 | 6 nM | 21 ×10⁻⁶ cm/s | 49 µL/min/mg | 2 |  |  | 
C[C@H](F)Cn1ccc2nc(Nc3cnn(C4CCN(C)CC4)c3)nc(NC3(C)CC3)c2c1=O | 56 nM | 2.9 | 2 nM |  | 47 µL/min/mg |  |  |  | 

SMILES | IC50 [1] | logD [2] | IC50 [3] | Papp A→B [4] | CLint [5] | efflux ratio [6] | IC50 [7] | solubility [8] | fraction unbound [9]
CN1CCC(n2cc(Nc3nc(NC4(C)CC4)c4c(=O)n(-c5cncnc5)ccc4n3)cn2)CC1 | 72 nM | 2.3 | 4 nM |  | 38 µL/min/mg | 5 |  |  | 
CN1CC2(CC(n3cc(Nc4nc(NC5(C)CC5)c5c(=O)n(C)ccc5n4)cn3)C2)C1 | 33 nM | 1.4 | 1 nM | 5.7 ×10⁻⁶ cm/s | 9.7 µL/min/mg | 15 |  |  | 
CN1CCC(n2cc(Nc3nc(NC4(C)CC4)c4c(=O)n(-c5cnn[nH]5)ccc4n3)cn2)CC1 | 69 nM | 2.5 | 1 nM | 3.3 ×10⁻⁶ cm/s | 20 µL/min/mg | 28 |  |  | 
C[C@H](CF)n1ccc2nc(Nc3cnn(C4CCN(C)CC4)c3)nc(NC3(C)CC3)c2c1=O | 170 nM | 2.8 | 5 nM |  | 47 µL/min/mg |  |  |  | 
CN1CCC(n2cc(Nc3nc(NC4(C)CC4)c4c(=O)n(C5CC5)ccc4n3)cn2)CC1 | 74 nM | 2.5 | 4 nM |  | 25 µL/min/mg |  |  |  | 
CN1CC2(CC(n3cc(Nc4nc(NC5(C)CC5)c5c(=O)n(-c6cn(C)nn6)ccc5n4)cn3)C2)C1 | 500 nM | 1.7 | 15 nM |  | < 3 µL/min/mg |  |  |  | 
C[C@@H](F)Cn1ccc2nc(Nc3cnn(C4CCN(C)CC4)c3)nc(NC3(C)CC3)c2c1=O | 110 nM | 2.9 | 21 nM |  | 41 µL/min/mg |  |  |  | 
CN(C)CC(=O)N1CCC(n2cc(Nc3nc(NC4(C)CC4)c4c(=O)n(C)ccc4n3)cn2)CC1 | 16 nM | 1.7 | 1 nM | 4.3 ×10⁻⁶ cm/s | 40 µL/min/mg | 37 |  |  | 
CN(C)C(=O)CN1CCC(n2cc(Nc3nc(NC4(C)CC4)c4c(=O)n(C)ccc4n3)cn2)CC1 | 46 nM | 2.4 | 0.8 nM | 15 ×10⁻⁶ cm/s | 57 µL/min/mg | 8.8 |  |  | 
CC(C)n1ccc2nc(Nc3cnn(C4CCN(C)CC4)c3)nc(NC3(C)CC3)c2c1=O | 210 nM | 3.3 | 5 nM |  | 32 µL/min/mg |  |  |  | 
CC(=O)N1CCC(n2cc(Nc3nc(NC4(C)CC4)c4c(=O)n(C)ccc4n3)cn2)CC1 | 49 nM | 2.5 | 2 nM | 48 ×10⁻⁶ cm/s | 83 µL/min/mg | 6 |  |  | 
C[C@H](F)Cn1ccc2nc(Nc3cnn(C4CC5(C4)CN(C)C5)c3)nc(NC3(C)CC3)c2c1=O | 120 nM | 2.1 | 2 nM | 17 ×10⁻⁶ cm/s | 10 µL/min/mg | 6.1 | 4200 nM | 890 µM (≈ 415 µg/mL) | 0.17
CN1CCC(n2cc(Nc3nc(NC4(C)CC4)c4c(=O)n(-c5nnc[nH]5)ccc4n3)cn2)CC1 | 320 nM | 1.8 | 11 nM | 16 ×10⁻⁶ cm/s | 4.7 µL/min/mg | 4.5 |  |  | 
CN1CC[C@H](n2cc(Nc3nc(NC4(C)CC4)c4c(=O)n(C)ccc4n3)cn2)[C@H](F)C1 (racemic) | 10 nM | 2.7 | 0.6 nM |  | 61 µL/min/mg |  |  |  | 
C[C@@H]1C[C@@H](n2cc(Nc3nc(NC4(C)CC4)c4c(=O)n(C)ccc4n3)cn2)CCN1C (racemic) | 50 nM | 2.2 | < 1 nM |  | 88 µL/min/mg |  |  |  | 
CN1CC[C@H](n2cc(Nc3nc(NC4(C)CC4)c4c(=O)n(C)ccc4n3)cn2)[C@@H](F)C1 (racemic) | 45 nM | 3.2 | 1 nM |  | 98 µL/min/mg |  |  |  | 
C[C@H]1C[C@@H](n2cc(Nc3nc(NC4(C)CC4)c4c(=O)n(C)ccc4n3)cn2)CCN1C (relative stereo) | 18 nM | 2.7 | 0.6 nM |  | 31 µL/min/mg |  |  |  | 

Reference: ChEMBL document CHEMBL5120828, “Identification and optimisation of a pyrimidopyridone series of IRAK4 inhibitors” (Bioorg Med Chem, 2022)
